Experimental data as given in PMC6757278, “Structural Basis for Inhibition of Human Primase by Arabinofuranosyl Nucleoside Analogues Fludarabine and Vidarabine” (ACS Chemical Biology, 2019).
pIC50, pKd: −log10 of the molar value.

Target: T1, Pri1 (full-length, 1 to 420) (Homo sapiens, UniProt P49642)
T1 construct: gene PRIM1; full-length catalytic subunit alone (1-420), His6 tag cleaved by TEV protease, E. coli Rosetta2 (DE3), pRSFDuet-1
T1 sequence (P49642 1-420): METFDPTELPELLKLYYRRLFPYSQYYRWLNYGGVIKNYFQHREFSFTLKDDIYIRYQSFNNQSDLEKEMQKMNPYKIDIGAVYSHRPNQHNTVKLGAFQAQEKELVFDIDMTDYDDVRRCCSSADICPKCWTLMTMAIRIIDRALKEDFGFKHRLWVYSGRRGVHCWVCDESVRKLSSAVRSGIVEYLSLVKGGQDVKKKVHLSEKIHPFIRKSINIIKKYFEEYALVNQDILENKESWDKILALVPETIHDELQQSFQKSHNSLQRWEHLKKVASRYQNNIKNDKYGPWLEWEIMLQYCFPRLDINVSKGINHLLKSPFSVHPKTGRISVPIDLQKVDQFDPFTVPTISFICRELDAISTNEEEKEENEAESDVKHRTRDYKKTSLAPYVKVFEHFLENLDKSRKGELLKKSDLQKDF
Experiment: fluorescence anisotropy direct titration
Format: binding
Settings: not given

pKd	SMILES
6.39	O=C(NCCCCCCNc1ncnc2c1ncn2[C@@H]1O[C@H](COP(=O)(O)OP(=O)(O)OP(=O)(O)O)[C@@H](O)[C@H]1O)c1ccc2c(c1)C1(OC2=O)c2ccc(O)cc2Oc2cc(O)ccc21 [6FAM-ATP]

Target: T1, Pri1 (full-length, 1 to 420)
Experiment: fluorescence polarization competition against 6FAM-ATP
Format: binding
Settings: read-out: K1/2

pIC50	SMILES
5.48	Nc1ncnc2c1ncn2[C@H]1C[C@H](O)[C@@H](COP(=O)(O)OP(=O)(O)OP(=O)(O)O)O1 [dATP]
5.82	Nc1ncnc2c1ncn2[C@@H]1O[C@H](COP(=O)(O)OP(=O)(O)OP(=O)(O)O)[C@@H](O)[C@@H]1O [vidarabine-TP]

Second part, the molecule before the results:

SMILES	pIC50
Nc1nc(F)nc2c1ncn2[C@@H]1O[C@H](COP(=O)(O)OP(=O)(O)OP(=O)(O)O)[C@@H](O)[C@H]1O [2F-ATP]	5.14
Nc1ncnc2c1ncn2[C@@H]1O[C@H](COP(=O)(O)OP(=O)(O)OP(=O)(O)O)[C@@H](O)[C@H]1O [ATP]	5.12
Nc1nc(F)nc2c1ncn2[C@@H]1O[C@H](COP(=O)(O)OP(=O)(O)OP(=O)(O)O)[C@@H](O)[C@@H]1O [fludarabine-TP]	5.96
